These results are taken from PMC5025780, “Copper(II) ions affect the gating dynamics of the 20S proteasome: a molecular and in cell study” (Scientific Reports, 2016).

What all share (type): biochemical
Assay [1] deals with T1, human 20S proteasome (hCP), C-L activity.
T1 construct: purchased Boston Biochem (Cambridge, MA, USA)
The assay is described as follows: C-L peptidase activity of isolated hCP (fluorogenic substrate). Conditions: hCP 2 nM, 1 h preincubation with ions, Tris 25 mM pH 7.6, 37 °C, no SDS; read-out: IC50 C-L. The text has this: (§1) Purified human 20S proteasome (hCP) and the fluorogenic substrates Suc-LLVY-AMC, Z-Leu-Leu-Glu-AMC, and Ac-Arg-Leu-Arg-AMC used to assay the ChT-L, T-L, and C-L activity, were from Boston Biochem (Cambridge, MA, USA). Bathocuproinedisulfonic acid disodium salt (BCS), dithiothreitol (DTT), N-Acetyl-L-Cysteine (NAC), Sodium dodecylsulphate (SDS) as well as CuCl2 and Zn(NO3)2 were from Sigma-Aldrich (St. Louis, MO). Proteasome inhibitors Epoxomicin were obtained from Enzo Life Science. Wild type 20S proteasome isolated from Saccharomices Cerevisiae (yCP) and a mutant (α3ΔN) where nine residues of the N-terminal tail of the α3 subunit are deleted to provide a permanently open-gate conformations were isolated as described elsewhere.
(§2) Peptidase activities of hCP (2 nM) were assayed on in 50 μL Tris 25 mM pH 7.6, at 37 °C with 100 μM of the fluorogenic substrate. hCP was incubated with Cu(II)/Zn(II) ions for 1 h prior activity assays. The fluorescence signal activated by peptide cleavage was recorded at 440 nm (excitation at 360 nm) for 45 min, by a Varioskan (Thermo^©) plate reader in 384 multiwell plates. Three replicates were performed for each data point. Data were reported as normalized percentages of residual activity. The potency (IC50) was calculated from the value of the dose response plot corresponding at a fractional activity of 50%. The IC50 values were determined using a non linear fit of experimental data in according to equation: […]
(§3) The midpoint of this function occurs at a fractional activity value of 50%, corresponding to half inhibition of the target enzyme. The IC50 values and their standard errors were deduced from the fitting. To evaluate if copper is a reversible PI, we measured the ChT-L activity of hCP incubated with Cu(II) (2.20 μM) before and after addition of an equimolar amount of EDTA.

For assay [2], the target named is T2, human 20S proteasome (hCP).
T2 construct: purchased Boston Biochem (Cambridge, MA, USA)
Put plainly: Peptidase activities of isolated hCP, all three (ChT-L, T-L, C-L). To be noted: T-L and C-L of hCP, no SDS, read-out: IC50 values, range over the three peptidase activities.
From the text: as §1
as §2, with “The potency (IC50) was calculated from the value of the dose response plot corresponding at a fractional activity of 50%.” left out

Assay [3] addresses T3, human 20S proteasome (hCP), ChT-L activity.
T3 construct: purchased Boston Biochem (Cambridge, MA, USA)
Put plainly: ChT-L peptidase activity of isolated hCP (Suc-LLVY-AMC fluorogenic substrate). To be noted: hCP 2 nM, 1 h preincubation with ions, Tris 25 mM pH 7.6, 37 °C, no SDS; read-out: IC50 ChT-L.
From the text: as §1, §2, §3

The target in assay [4] is T4, human 20S proteasome (hCP), T-L activity.
T4 construct: purchased Boston Biochem (Cambridge, MA, USA)
Put plainly: T-L peptidase activity of isolated hCP (fluorogenic substrate). To be noted: hCP 2 nM, 1 h preincubation with ions, Tris 25 mM pH 7.6, 37 °C, no SDS; read-out: IC50 T-L.
From the text: as §1, §2, §3

Consider `O=[N+]([O-])[O-].O=[N+]([O-])[O-].[Zn+2]` [Zn(II), Zn(NO3)2, reference compound], for which the IC50 in assay [1] is 5.84 µM; in assay [2] it was 4.16 to 5.99 µM; in assay [3], 5.99 µM; in assay [4], 4.16 µM.

The term IC50 denotes the concentration that gives 50% inhibition.
